Source: the NIST ThermoML archive (doi:10.1016/j.fluid.2006.12.012)
Numbers after ± are expanded uncertainties.

How the values were obtained:
[1] = 298.15 K; 101.33 kPa; Liquid; Pycnometric method
[2] = refractive index (Na D-line) (dimensionless); conditions: 298.15 K; 101.33 kPa; Liquid; Standard Abbe refractometry
[3] = xn = mol fraction of the nth substance listed; conditions: 303.15 K, 101 kPa, Liquid, Direct dilatometry
[4] = excess molar enthalpy (molar enthalpy of mixing); xn = mol fraction of the nth substance listed; conditions: 298.15 K, 101 kPa, Liquid

For `CC(C)CO` [2-methyl-1-propanol], the mass density [1] was 794.34 ± 0.78 kg/m3 and the refractive index [2] was 1.3939 ± 0.0008.
`CC(C)CO` [2-methyl-1-propanol] + CN1CCCC1=O gave an excess molar volume ([3]; x2 = 0.1356) of -9.8e-08 ± 6e-09 m3/mol, an excess molar volume ([3]; x2 = 0.2201) of -1.47e-07 ± 6e-09 m3/mol and an excess molar volume ([3]; x2 = 0.2921) of -1.74e-07 ± 6e-09 m3/mol. It also gave an excess molar volume ([3]; x2 = 0.4102) of -2.06e-07 ± 6e-09 m3/mol, an excess molar volume ([3]; x2 = 0.5144) of -2.26e-07 ± 6e-09 m3/mol and an excess molar volume ([3]; x2 = 0.5994) of -2.32e-07 ± 6e-09 m3/mol. For the same compound, the excess molar volume ([3]; x2 = 0.6915) was -2.21e-07 ± 6e-09 m3/mol, the excess molar volume ([3]; x2 = 0.8044) was -1.86e-07 ± 6e-09 m3/mol and the excess molar volume ([3]; x2 = 0.9237) was -9.6e-08 ± 6e-09 m3/mol. It also gave an excess molar enthalpy ([4]; x2 = 0.051) of 0.0366 ± 0.00186 kcal/mol, an excess molar enthalpy ([4]; x2 = 0.1288) of 0.0654 ± 0.00287 kcal/mol and an excess molar enthalpy ([4]; x2 = 0.2035) of 0.085 ± 0.00359 kcal/mol. It also gave an excess molar enthalpy ([4]; x2 = 0.2736) of 0.0939 ± 0.00382 kcal/mol, an excess molar enthalpy ([4]; x2 = 0.3385) of 0.0957 ± 0.00382 kcal/mol and an excess molar enthalpy ([4]; x2 = 0.3939) of 0.0938 ± 0.00382 kcal/mol. The excess molar enthalpy ([4]; x2 = 0.4477) was 0.0902 ± 0.00359 kcal/mol, the excess molar enthalpy ([4]; x2 = 0.4974) was 0.0863 ± 0.00359 kcal/mol and the excess molar enthalpy ([4]; x2 = 0.543) was 0.0817 ± 0.00335 kcal/mol. The excess molar enthalpy ([4]; x2 = 0.6198) was 0.0645 ± 0.00287 kcal/mol, the excess molar enthalpy ([4]; x2 = 0.6816) was 0.0585 ± 0.00263 kcal/mol and the excess molar enthalpy ([4]; x2 = 0.748) was 0.0524 ± 0.00239 kcal/mol. The excess molar enthalpy ([4]; x2 = 0.8179) was 0.0474 ± 0.00222 kcal/mol, the excess molar enthalpy ([4]; x2 = 0.8911) was 0.0354 ± 0.00184 kcal/mol and the excess molar enthalpy ([4]; x2 = 0.9686) was 0.0224 ± 0.00143 kcal/mol.
Work on `CC(C)(C)O` [2-methylpropan-2-ol] yielded a mass density [1] of 776.16 ± 0.76 kg/m3 and a refractive index [2] of 1.3851 ± 0.0008.
`CC(C)(C)O` [2-methylpropan-2-ol] + CN1CCCC1=O showed an excess molar volume ([3]; x2 = 0.1121) of -3.2e-08 ± 6e-09 m3/mol, an excess molar volume ([3]; x2 = 0.2423) of -8.4e-08 ± 6e-09 m3/mol and an excess molar volume ([3]; x2 = 0.3215) of -1.16e-07 ± 6e-09 m3/mol. The excess molar volume ([3]; x2 = 0.4128) was -1.36e-07 ± 6e-09 m3/mol, the excess molar volume ([3]; x2 = 0.4601) was -1.52e-07 ± 6e-09 m3/mol and the excess molar volume ([3]; x2 = 0.5403) was -1.48e-07 ± 6e-09 m3/mol. The excess molar volume ([3]; x2 = 0.6359) was -1.42e-07 ± 6e-09 m3/mol, the excess molar volume ([3]; x2 = 0.7246) was -1.18e-07 ± 6e-09 m3/mol and the excess molar volume ([3]; x2 = 0.8032) was -9e-08 ± 6e-09 m3/mol. The excess molar volume ([3]; x2 = 0.8404) was -6.4e-08 ± 6e-09 m3/mol, the excess molar volume ([3]; x2 = 0.9238) was -2.6e-08 ± 6e-09 m3/mol and the excess molar enthalpy ([4]; x2 = 0.0634) was 0.0223 ± 0.00143 kcal/mol. For the same compound, the excess molar enthalpy ([4]; x2 = 0.1313) was 0.0597 ± 0.00263 kcal/mol, the excess molar enthalpy ([4]; x2 = 0.2034) was 0.094 ± 0.00382 kcal/mol and the excess molar enthalpy ([4]; x2 = 0.2666) was 0.117 ± 0.00454 kcal/mol. The excess molar enthalpy ([4]; x2 = 0.3319) was 0.135 ± 0.00526 kcal/mol, the excess molar enthalpy ([4]; x2 = 0.3942) was 0.145 ± 0.0055 kcal/mol and the excess molar enthalpy ([4]; x2 = 0.4382) was 0.142 ± 0.0055 kcal/mol. For the same compound, the excess molar enthalpy ([4]; x2 = 0.4828) was 0.14 ± 0.0055 kcal/mol, the excess molar enthalpy ([4]; x2 = 0.5381) was 0.137 ± 0.00526 kcal/mol and the excess molar enthalpy ([4]; x2 = 0.6026) was 0.128 ± 0.00502 kcal/mol. It also gave an excess molar enthalpy ([4]; x2 = 0.6733) of 0.112 ± 0.00454 kcal/mol, an excess molar enthalpy ([4]; x2 = 0.7442) of 0.0971 ± 0.00406 kcal/mol and an excess molar enthalpy ([4]; x2 = 0.829) of 0.0662 ± 0.00287 kcal/mol. The excess molar enthalpy ([4]; x2 = 0.9194) was 0.0342 ± 0.00179 kcal/mol.
With `CC(C)CCO` [3-methylbutan-1-ol] the mass density [1] was 801.76 ± 0.79 kg/m3 and the refractive index [2] was 1.4053 ± 0.0008.
Work on `CC(C)CCO` [3-methylbutan-1-ol] + CN1CCCC1=O yielded an excess molar volume ([3]; x2 = 0.0999) of -7.8e-08 ± 6e-09 m3/mol, an excess molar volume ([3]; x2 = 0.2737) of -1.69e-07 ± 6e-09 m3/mol and an excess molar volume ([3]; x2 = 0.3718) of -1.97e-07 ± 6e-09 m3/mol. For the same compound, the excess molar volume ([3]; x2 = 0.4155) was -2.09e-07 ± 6e-09 m3/mol, the excess molar volume ([3]; x2 = 0.5254) was -2.01e-07 ± 6e-09 m3/mol and the excess molar volume ([3]; x2 = 0.6399) was -1.76e-07 ± 6e-09 m3/mol. For the same compound, the excess molar volume ([3]; x2 = 0.7034) was -1.49e-07 ± 6e-09 m3/mol, the excess molar volume ([3]; x2 = 0.8699) was -7.3e-08 ± 6e-09 m3/mol and the excess molar volume ([3]; x2 = 0.9384) was -3.6e-08 ± 6e-09 m3/mol. The excess molar enthalpy ([4]; x2 = 0.0777) was 0.0394 ± 0.00196 kcal/mol, the excess molar enthalpy ([4]; x2 = 0.149) was 0.0727 ± 0.00311 kcal/mol and the excess molar enthalpy ([4]; x2 = 0.2286) was 0.101 ± 0.00406 kcal/mol. For the same compound, the excess molar enthalpy ([4]; x2 = 0.3011) was 0.112 ± 0.00454 kcal/mol, the excess molar enthalpy ([4]; x2 = 0.3692) was 0.12 ± 0.00478 kcal/mol and the excess molar enthalpy ([4]; x2 = 0.4301) was 0.119 ± 0.00478 kcal/mol. It also gave an excess molar enthalpy ([4]; x2 = 0.4847) of 0.116 ± 0.00454 kcal/mol, an excess molar enthalpy ([4]; x2 = 0.5348) of 0.113 ± 0.00454 kcal/mol and an excess molar enthalpy ([4]; x2 = 0.5484) of 0.114 ± 0.00454 kcal/mol. The excess molar enthalpy ([4]; x2 = 0.5792) was 0.108 ± 0.0043 kcal/mol, the excess molar enthalpy ([4]; x2 = 0.6031) was 0.103 ± 0.00406 kcal/mol and the excess molar enthalpy ([4]; x2 = 0.6712) was 0.0904 ± 0.00359 kcal/mol. The excess molar enthalpy ([4]; x2 = 0.744) was 0.0778 ± 0.00335 kcal/mol, the excess molar enthalpy ([4]; x2 = 0.8153) was 0.0615 ± 0.00263 kcal/mol and the excess molar enthalpy ([4]; x2 = 0.8821) was 0.0416 ± 0.00203 kcal/mol. The excess molar enthalpy ([4]; x2 = 0.9444) was 0.0212 ± 0.00139 kcal/mol.
For `CN1CCCC1=O` [N-methylpyrrolidone], the mass density [1] was 1023.4 ± 1.1 kg/m3 and the refractive index [2] was 1.4674 ± 0.0008.
Work on `CN1CCCC1=O` [N-methylpyrrolidone] + CC(C)O yielded an excess molar volume ([3]; x1 = 0.1498) of -5.2e-08 ± 6e-09 m3/mol, an excess molar volume ([3]; x1 = 0.2066) of -7.8e-08 ± 6e-09 m3/mol and an excess molar volume ([3]; x1 = 0.3202) of -1.29e-07 ± 6e-09 m3/mol. It also gave an excess molar volume ([3]; x1 = 0.4317) of -1.57e-07 ± 6e-09 m3/mol, an excess molar volume ([3]; x1 = 0.5027) of -1.62e-07 ± 6e-09 m3/mol and an excess molar volume ([3]; x1 = 0.5854) of -1.66e-07 ± 6e-09 m3/mol. For the same compound, the excess molar volume ([3]; x1 = 0.7216) was -1.42e-07 ± 6e-09 m3/mol, the excess molar volume ([3]; x1 = 0.8148) was -1.06e-07 ± 6e-09 m3/mol and the excess molar volume ([3]; x1 = 0.9062) was -5.8e-08 ± 6e-09 m3/mol. For the same compound, the excess molar enthalpy ([4]; x1 = 0.0516) was 0.0709 ± 0.00311 kcal/mol, the excess molar enthalpy ([4]; x1 = 0.1082) was 0.137 ± 0.00526 kcal/mol and the excess molar enthalpy ([4]; x1 = 0.1702) was 0.19 ± 0.00717 kcal/mol. The excess molar enthalpy ([4]; x1 = 0.2279) was 0.223 ± 0.00837 kcal/mol, the excess molar enthalpy ([4]; x1 = 0.2894) was 0.24 ± 0.00884 kcal/mol and the excess molar enthalpy ([4]; x1 = 0.3471) was 0.248 ± 0.00908 kcal/mol. The excess molar enthalpy ([4]; x1 = 0.4059) was 0.246 ± 0.00908 kcal/mol, the excess molar enthalpy ([4]; x1 = 0.4562) was 0.238 ± 0.00884 kcal/mol and the excess molar enthalpy ([4]; x1 = 0.595) was 0.174 ± 0.00669 kcal/mol. It also gave an excess molar enthalpy ([4]; x1 = 0.6888) of 0.147 ± 0.00574 kcal/mol, an excess molar enthalpy ([4]; x1 = 0.7874) of 0.113 ± 0.00454 kcal/mol and an excess molar enthalpy ([4]; x1 = 0.892) of 0.0648 ± 0.00287 kcal/mol.
In the case of `CN1CCCC1=O` [N-methylpyrrolidone] + CCC(C)O, the excess molar volume ([3]; x1 = 0.1046) is reported as -6.5e-08 ± 6e-09 m3/mol, the excess molar volume ([3]; x1 = 0.1831) is reported as -1.26e-07 ± 6e-09 m3/mol and the excess molar volume ([3]; x1 = 0.249) is reported as -1.62e-07 ± 6e-09 m3/mol. The excess molar volume ([3]; x1 = 0.3096) was -1.93e-07 ± 6e-09 m3/mol, the excess molar volume ([3]; x1 = 0.3777) was -2.19e-07 ± 6e-09 m3/mol and the excess molar volume ([3]; x1 = 0.4817) was -2.38e-07 ± 6e-09 m3/mol. The excess molar volume ([3]; x1 = 0.5739) was -2.3e-07 ± 6e-09 m3/mol, the excess molar volume ([3]; x1 = 0.6355) was -2.16e-07 ± 6e-09 m3/mol and the excess molar volume ([3]; x1 = 0.7494) was -1.64e-07 ± 6e-09 m3/mol. The excess molar volume ([3]; x1 = 0.8086) was -1.36e-07 ± 6e-09 m3/mol, the excess molar volume ([3]; x1 = 0.9142) was -6.4e-08 ± 6e-09 m3/mol and the excess molar enthalpy ([4]; x1 = 0.0691) was 0.0413 ± 0.00201 kcal/mol. It also gave an excess molar enthalpy ([4]; x1 = 0.1595) of 0.0937 ± 0.00382 kcal/mol, an excess molar enthalpy ([4]; x1 = 0.2388) of 0.123 ± 0.00478 kcal/mol and an excess molar enthalpy ([4]; x1 = 0.3106) of 0.134 ± 0.00526 kcal/mol. It also gave an excess molar enthalpy ([4]; x1 = 0.3733) of 0.14 ± 0.0055 kcal/mol, an excess molar enthalpy ([4]; x1 = 0.4822) of 0.136 ± 0.00526 kcal/mol and an excess molar enthalpy ([4]; x1 = 0.5305) of 0.131 ± 0.00502 kcal/mol. The excess molar enthalpy ([4]; x1 = 0.5614) was 0.124 ± 0.00478 kcal/mol, the excess molar enthalpy ([4]; x1 = 0.6341) was 0.109 ± 0.0043 kcal/mol and the excess molar enthalpy ([4]; x1 = 0.7217) was 0.0872 ± 0.00359 kcal/mol. For the same compound, the excess molar enthalpy ([4]; x1 = 0.8176) was 0.0598 ± 0.00263 kcal/mol and the excess molar enthalpy ([4]; x1 = 0.9067) was 0.0327 ± 0.00174 kcal/mol.
Compound `CCC(C)O` (stereo not given) [butan-2-ol] has a mass density [1] of 798.92 ± 0.79 kg/m3 and a refractive index [2] of 1.3954 ± 0.0008.
Work on `CC(C)O` [propan-2-ol] yielded a mass density [1] of 776.88 ± 0.76 kg/m3 and a refractive index [2] of 1.375 ± 0.0008.
